Source: patent US20110172182A1, “Carboxyethylated Cyclodextrin Polysulfates Useful As Medicaments” (ARCARIOS B.V., priority 2008, published 2011)

Legend:
normal pooled plasma = test: Blood coagulation activities (aPTT, PT, fibrinogen) in normal pooled plasma; design: species or system human; settings: after incubation with 50 or 100 μg/ml
Description: MA-CDPS, HP-CDPS, CE-CDPS and CDPS (as defined in examples 3-4 and characterised in table 1) were prepared as buffered solutions at various concentrations. The polysaccharides were incubated with normal pooled plasma prepared out of 40 healthy volunteers and analyzed for their effects on activated partial thromboplastin time (aPTT), prothrombin time (PT) and fibrinogen levels on a STA Compact® coagulation analyzer (available from Diagnostica Stago, Asnieres, France) according to the manufacturers instructions.

[1] = test system: healthy donor thrombocytes; test: Platelet activation (CD62p, flow cytometry) by HIT patient anti-heparin/PF4 antibodies; type: cell-based, human; settings: for ratio: % CD62p+ (with substance)/% CD62p+ (without) / ΔCD62p+ %: percentage increases in CD62p positive platelets: 0.3 IU heparin or 5 μg/ml polysaccharide
Description: The activation of healthy donor thrombocytes by HIT patient anti-heparin/PF4 antibodies in the presence of heparin and the differently sulfated forms of β-cyclodextrin was tested. […] The expression of CD62p by the activated platelets was assayed by means of flow cytometry with a FC500 analyzer (available from Beckman Coulter, Belgium). Platelet-rich plasma solution (PRP) was prepared by slow centrifugation (10 minutes at 180 g) of fresh citrate anti-coagulated blood (1:9 v/v, 0.129 mol/L or 3.8% trisodium citrate buffer), obtained from normal donors. HIT Ab positive plasma samples from patients and HIT Ab negative control plasma from healthy donors were prepared by double centrifugation (15 minutes at 2230 rpm) of fresh citrate anti-coagulated blood. 70 μl of PRP was incubated with 20 μL of HIT Ab containing plasma optionally in the presence of heparin (0.3 IU/ml) or the relevant β-cyclodextrin derivative (5 μg/ml). Experiments with each HIT Ab positive plasma sample were repeated independently using thrombocytes of 2 donors (A and B), to avoid the possibility of non-reactive platelets.
Following the initial 40 minutes incubation step, 5 μl of the platelets solution was transferred to a fresh tube with 85 μL phosphate buffered saline (PBS) containing 1% bovine serum albumin (BSA) and 0.1% Na-azide, 5 μl (0.25 μg) monoclonal anti-CD41 antibodies (Ab) (phycoerythrin-Texas Red Energy coupled dye (ECD)-conjugated, Beckman Coulter) and 5 μl (0.125 μg) of anti-CD62p Ab (phycoerythrin (PE)-conjugated, Beckman Coulter). CD41 (Glycoprotein […]) is a selective marker of platelets and platelet precursors. CD62p is a constituent of alpha granules and is released to the platelet surface on activation.
After 20 minutes of incubation at room temperature, the total volume of the platelet suspension was adjusted to 600 μL buffered solution and evaluated without delay by flow cytometry. 20,000 events per sample were analysed and the platelet populations were gated by side scatter characteristics and the platelet marker CD41. The fraction of activated platelets among the total platelet population was determined and relative CD62p ratios to the internal controls were calculated. [ratio: % CD62p^+ (0.3 IU Heparine or 5 μg/ml β-cyclodextrin derivative)/% CD62p^+ (0 IU Heparine or 0 μg/ml β-cyclodextrin derivative)]. Test results for the heparin treated platelets were evaluated by the scoring system described in Thromb. Haemost. (1999) 82:1255-1259. Control tests were scored positive when the calculated ratios of at least 2 donors were more then 2, based on previously obtained results with normal individuals. To evaluate the potential of the different β-cyclodextrin derivatives to induce platelet activation, both the percentages and ratios of CD62p^+ platelets after incubation with the respective β-cyclodextrin were statistically compared to the percentage and the ratio of CD62p^+ platelets after heparin incubation.

C57BI/6 male mice = test: Collagenase-induced knee osteoarthritis in mice, histopathology; type: in vivo
Description: Knee osteoarthritis was induced by injecting the right knees of adult (10 weeks) C57BI/6 male mice with 10 μl of a 2 U/μl collagenase type VII (Sigma C-9572, available from Sigma-Aldrich Belgium) solution. The left knee of these animals was injected with 10 μl PBS and served as a control. Two groups of each 8 mice were randomized on weight, the first group was injected subcutaneously once weekly, with 1 mg/kg of the CE-CDPS of example 3, the second group was treated with saline. Treatment was initiated three days after the mice received their intra-articular injection. The animals were fed a standard diet with tap water ad libitum and their weight was recorded twice a week. The mice were sacrificed three weeks after induction of knee osteoarthritis and the liver, kidneys and knee joints were fixed immediately in 2% neutral buffered paraformaldehyde (Fluka 76240, available from Sigma-Aldrich Belgium).
After fixation, knee joints were decalcified in 0.5 M EDTA in PBS and embedded in paraffin. 5μ tissue sections were cut and stained with haematoxylin and eosin for an analysis of the general morphology or with safranin-O for an assessment of proteoglycan content. Each 100 μm, 3 sections of the joint were evaluated.
Stained slides were submitted for evaluation. The following parameters were evaluated: synovial inflammation, fibrosis, osteophytes and erosion of cartilage. Synovial inflammation was graded from 0 to +3 as follows: 0 no changes from normal; +1 mild changes; +2 moderate changes; and +3 severe changes.
Fibrosis was scored as follows: 0 no changes from normal; +1 fibrosis without metaplasia; +2 fibrosis associated with chondroplasia; +3 fibrosis associated with metaplastic bone. Osteophytes were graded from 0 to +4 referring to the amount of osteophytes observed, with a maximum score of 1 per compartment.
Cartilage erosion was graded from 0 to +3 as follows: 0 no changes from normal; +1 only superficial erosion; +2 loss of proteoglycan in one compartment; and +3 loss of proteoglycan in different compartments. In this scoring system the femoral/tibial junction as a whole was taken in consideration by 2 independent investigators.

[2] = HIT ab plasma pat1, platelet donor dA
[3] = HIT ab plasma pat1, platelet donor dB
[4] = HIT ab plasma pat2, platelet donor dA
[5] = HIT ab plasma pat2, platelet donor dB
[6] = HIT ab plasma pat3, platelet donor dA
[7] = HIT ab plasma pat3, platelet donor dB
[8] = HIT ab plasma pat4, platelet donor dA
[9] = HIT ab plasma pat4, platelet donor dB
[10] = in the presence of plasma samples of individuals that had developed HIT Ab
[11] = 1 mg/kg subcutaneously once weekly, OA knees

platelet activation [1, 10] | Substance | fibrinogen concentrations (normal pooled plasma) | ratio: % CD62p+ (with substance)/% CD62p+ (without) [1, 2] | ΔCD62p+ %: percentage increases in CD62p positive platelets [1, 2] [%] | ratio: % CD62p+ (with substance)/% CD62p+ (without) [1, 3] | ΔCD62p+ %: percentage increases in CD62p positive platelets [1, 3] [%] | ratio: % CD62p+ (with substance)/% CD62p+ (without) [1, 4] | ΔCD62p+ %: percentage increases in CD62p positive platelets [1, 4] [%] | ratio: % CD62p+ (with substance)/% CD62p+ (without) [1, 5] | ΔCD62p+ %: percentage increases in CD62p positive platelets [1, 5] [%] | ratio: % CD62p+ (with substance)/% CD62p+ (without) [1, 6] | ΔCD62p+ %: percentage increases in CD62p positive platelets [1, 6] [%] | ratio: % CD62p+ (with substance)/% CD62p+ (without) [1, 7] | ΔCD62p+ %: percentage increases in CD62p positive platelets [1, 7] [%] | ratio: % CD62p+ (with substance)/% CD62p+ (without) [1, 8] | ΔCD62p+ %: percentage increases in CD62p positive platelets [1, 8] [%] | ratio: % CD62p+ (with substance)/% CD62p+ (without) [1, 9] | ΔCD62p+ %: percentage increases in CD62p positive platelets [1, 9] [%] | other results
induced platelet activation | Sulfated 6-monoamino-6-monodeoxy β-cyclodextrin [MA-CDPS] | Minor decreases | 5.2 | 74.8 | 5.5 | 69.9 | 1.4 | 9.6 | 3.5 | 17.4 | 1.9 | 16.7 | 8.2 | 32.6 | 3.5 | 51.1 | 3.1 | 63.6 | –
do not significantly activate platelets | Sulfated (2-carboxyethyl)-β-cyclodextrin [CE-CDPS] | Minor decreases | 1.8 | 13.9 | 2.2 | 14.4 | 1.1 | 2.4 | 1.2 | 1.1 | 1.4 | 7.9 | 2.7 | 10.2 | 2.2 | 22.9 | 2.4 | 45.0 | cross-reactivity with the heparin/PF4 antibodies ([1]; paired analysis versus heparin, ratios and percentages of CD62p positive cells): no cross-reactivity; osteophyte growth (C57BI/6 male mice; [11]): not inhibited; pannus formation (C57BI/6 male mice; [11]): not inhibited; synovial inflammation (C57BI/6 male mice; [11]): not inhibited; weight of the animals (C57BI/6 male mice; 1 mg/kg subcutaneously once weekly, three weeks): did not affect; overall cartilage damage (Safranine O staining) (C57BI/6 male mice; 1 mg/kg subcutaneously once weekly, versus PBS-treated): reduced; cartilage proteoglycan depletion in osteoarthritis knee joints (C57BI/6 male mice; collagenase-induced knee-osteoarthritis in mice): prevented
induced platelet activation | Sulfated (2-hydroxypropyl)-β-cyclodextrin [HP-CDPS] | Minor decreases | 4.9 | 67.6 | 5.1 | 53.0 | 1.0 | 0.1 | 1.1 | 1.2 | 2.1 | 23.3 | 4.7 | 17.1 | 4.6 | 63.2 | 2.8 | 60.7 | –
– | heparin | – | 4.2 | 45.5 | 2.2 | 14.3 | 2.8 | 45.6 | 3.9 | 15.1 | 4.3 | 60.3 | 8.2 | 42.3 | 2.7 | 34.8 | 2.8 | 56.4 | platelet heparin activation ratios % CD62p+ (0.3 IU heparin)/% CD62p+ (0 IU heparin) ([1]; all HIT Ab positive plasma samples, the two donors): above 2; platelet activation ([1]; in the absence of patient's HIT Ab): not activated
